Assay results: article PMC5074247 (Biopharmaceutics & Drug Disposition, 2016)
Where two headings read alike, the source gives them in different places.

How the values were obtained:
[1] = type: in vivo, Sprague–Dawley rats; details: all time‐points measured; oral 1 mg/kg [^14C]teneligliptin; SD rats
[2] = SHRcp model ref 40; cited from earlier work
[3] = Tissue distribution of radioactivity in SD rats; type: in vivo, Sprague–Dawley rats; details: oral 1 mg/kg
[4] = cited from earlier work
[5] = Volume of distribution at steady state after intravenous administration to rats; type: in vivo; details: rat, plasma
[6] = Whole‐body autoradiography of SD rats; type: in vivo, Sprague–Dawley rats; details: 168 h, oral 1 mg/kg, SD rat

Cc1cc(N2CCN([C@@H]3CN[C@H](C(=O)N4CCSC4)C3)CC2)n(-c2ccccc2)n1 [Teneligliptin, 3‐[(2S,4S)‐4‐[4‐(3‐methyl‐1‐phenyl‐1H‐pyrazol‐5‐yl)piperazin‐1‐yl]pyrrolidin‐2‐ylcarbonyl] thiazolidine]
radioactive component in plasma and kidney (HPLC radiochromatogram) [1]: most abundant radioactive component | TNF‐α expression in the aorta [2]: decreased | endothelial dysfunction [2]: attenuated | Concentration of radioactivity ([3]; Adrenal, 0.5 h): 1221.7 ± 289.0 ng eq/ml or g | Concentration of radioactivity ([3]; Adrenal, 5 h): 323.7 ± 90.7 ng eq/ml or g | Concentration of radioactivity ([3]; Adrenal, 12 h): 177.0 ± 22.7 ng eq/ml or g | Concentration of radioactivity ([3]; Adrenal, 24 h): 100.4 ± 8.8 ng eq/ml or g | Concentration of radioactivity ([3]; Adrenal, 72 h): 20.5 ± 4.3 (N.C.) ng eq/ml or g | Concentration of radioactivity ([3]; Adrenal, 168 h): 6.5 ± 4.5 (N.C.) ng eq/ml or g | Concentration of radioactivity ([3]; Aorta, 0.5 h): 488.7 ± 78.4 ng eq/ml or g | Concentration of radioactivity ([3]; Aorta, 5 h): 99.0 ± 46.0 ng eq/ml or g | Concentration of radioactivity ([3]; Aorta, 12 h): 35.7 ± 16.7 ng eq/ml or g | Concentration of radioactivity ([3]; Aorta, 24 h): 15.4 ± 5.2 ng eq/ml or g | Concentration of radioactivity ([3]; Bone, 0.5 h): 118.7 ± 22.2 ng eq/ml or g | Concentration of radioactivity ([3]; Bone, 5 h): 52.3 ± 19.9 ng eq/ml or g | Concentration of radioactivity ([3]; Bone, 12 h): 23.8 ± 7.5 ng eq/ml or g | Concentration of radioactivity ([3]; Epididymis, 0.5 h): 232.5 ± 61.7 ng eq/ml or g | Concentration of radioactivity ([3]; Epididymis, 5 h): 352.5 ± 76.0 ng eq/ml or g | Concentration of radioactivity ([3]; Epididymis, 12 h): 259.9 ± 44.4 ng eq/ml or g | Concentration of radioactivity ([3]; Epididymis, 24 h): 167.6 ± 35.4 ng eq/ml or g | Concentration of radioactivity ([3]; Epididymis, 72 h): 44.9 ± 3.8 (N.C.) ng eq/ml or g | Concentration of radioactivity ([3]; Epididymis, 168 h): 11.2 ± 3.3 (N.C.) ng eq/ml or g | Concentration of radioactivity ([3]; Heart, 0.5 h): 454.0 ± 85.0 ng eq/ml or g | Concentration of radioactivity ([3]; Heart, 5 h): 118.7 ± 34.6 ng eq/ml or g | Concentration of radioactivity ([3]; Heart, 12 h): 56.6 ± 8.9 ng eq/ml or g | Concentration of radioactivity ([3]; Heart, 24 h): 30.6 ± 2.7 ng eq/ml or g | Concentration of radioactivity ([3]; Heart, 72 h): 6.3 ± 1.1 (N.C.) ng eq/ml or g | Concentration of radioactivity ([3]; Kidney, 0.5 h): 4568.2 ± 609.1 ng eq/ml or g | Concentration of radioactivity ([3]; Kidney, 5 h): 3292.8 ± 76.8 ng eq/ml or g | Concentration of radioactivity ([3]; Kidney, 12 h): 2872.1 ± 419.4 ng eq/ml or g | Concentration of radioactivity ([3]; Kidney, 24 h): 2637.8 ± 410.3 ng eq/ml or g | Concentration of radioactivity ([3]; Kidney, 72 h): 1548.5 ± 192.3 (N.C.) ng eq/ml or g | Concentration of radioactivity ([3]; Kidney, 168 h): 606.1 ± 203.2 (N.C.) ng eq/ml or g | Concentration of radioactivity ([3]; Liver, 0.5 h): 4686.7 ± 932.3 ng eq/ml or g | Concentration of radioactivity ([3]; Liver, 5 h): 1753.2 ± 130.4 ng eq/ml or g | Concentration of radioactivity ([3]; Liver, 12 h): 814.1 ± 68.7 ng eq/ml or g | Concentration of radioactivity ([3]; Liver, 24 h): 389.5 ± 49.5 ng eq/ml or g | Concentration of radioactivity ([3]; Liver, 72 h): 250.2 ± 21.8 (N.C.) ng eq/ml or g | Concentration of radioactivity ([3]; Liver, 168 h): 92.4 ± 17.2 (N.C.) ng eq/ml or g | Concentration of radioactivity ([3]; Lung, 0.5 h): 1938.4 ± 456.7 ng eq/ml or g | Concentration of radioactivity ([3]; Lung, 5 h): 714.7 ± 116.7 ng eq/ml or g | Concentration of radioactivity ([3]; Lung, 12 h): 500.7 ± 40.2 ng eq/ml or g | Concentration of radioactivity ([3]; Lung, 24 h): 323.6 ± 46.7 ng eq/ml or g | Concentration of radioactivity ([3]; Lung, 72 h): 71.3 ± 12.9 (N.C.) ng eq/ml or g | Concentration of radioactivity ([3]; Lung, 168 h): 16.9 ± 5.9 (N.C.) ng eq/ml or g | Concentration of radioactivity ([3]; Pancreas, 0.5 h): 1253.9 ± 341.0 ng eq/ml or g | Concentration of radioactivity ([3]; Pancreas, 5 h): 298.9 ± 83.1 ng eq/ml or g | Concentration of radioactivity ([3]; Pancreas, 12 h): 107.8 ± 22.6 ng eq/ml or g | Concentration of radioactivity ([3]; Pancreas, 24 h): 50.8 ± 1.2 ng eq/ml or g | Concentration of radioactivity ([3]; Pancreas, 72 h): 8.3 ± 1.8 (N.C.) ng eq/ml or g | Concentration of radioactivity ([3]; Pancreas, 168 h): 3.4 ± 0.9 (N.C.) ng eq/ml or g | Concentration of radioactivity ([3]; Prostate, 0.5 h): 478.6 ± 167.1 ng eq/ml or g | Concentration of radioactivity ([3]; Prostate, 5 h): 169.0 ± 53.9 ng eq/ml or g | Concentration of radioactivity ([3]; Prostate, 12 h): 76.7 ± 18.8 ng eq/ml or g | Concentration of radioactivity ([3]; Prostate, 24 h): 38.6 ± 3.3 ng eq/ml or g | Concentration of radioactivity ([3]; Prostate, 72 h): 6.1 ± 1.3 (N.C.) ng eq/ml or g | Concentration of radioactivity ([3]; Prostate, 168 h): 2.2 ± 0.6 (N.C.) ng eq/ml or g | Concentration of radioactivity ([3]; Seminal vesicle, 0.5 h): 329.0 ± 105.4 ng eq/ml or g | Concentration of radioactivity ([3]; Seminal vesicle, 5 h): 133.8 ± 57.4 ng eq/ml or g | Concentration of radioactivity ([3]; Seminal vesicle, 12 h): 51.0 ± 6.3 ng eq/ml or g | Concentration of radioactivity ([3]; Seminal vesicle, 24 h): 18.7 ± 4.4 ng eq/ml or g | Concentration of radioactivity ([3]; Seminal vesicle, 72 h): 1.7 ± 2.0 (N.C.) ng eq/ml or g | Concentration of radioactivity ([3]; Skeletal muscle, 0.5 h): 242.5 ± 66.9 ng eq/ml or g | Concentration of radioactivity ([3]; Skeletal muscle, 5 h): 46.7 ± 20.1 ng eq/ml or g | Concentration of radioactivity ([3]; Skeletal muscle, 12 h): 16.7 ± 2.4 ng eq/ml or g | Concentration of radioactivity ([3]; Skeletal muscle, 24 h): 7.9 ± 1.1 ng eq/ml or g | Concentration of radioactivity ([3]; Skin, 0.5 h): 366.3 ± 77.9 ng eq/ml or g | Concentration of radioactivity ([3]; Skin, 5 h): 199.1 ± 47.5 ng eq/ml or g | Concentration of radioactivity ([3]; Skin, 12 h): 99.2 ± 14.6 ng eq/ml or g | Concentration of radioactivity ([3]; Skin, 24 h): 55.2 ± 2.9 ng eq/ml or g | Concentration of radioactivity ([3]; Skin, 72 h): 18.9 ± 1.6 (N.C.) ng eq/ml or g | Concentration of radioactivity ([3]; Skin, 168 h): 9.3 ± 3.3 (N.C.) ng eq/ml or g | Concentration of radioactivity ([3]; Spinal cord, 0.5 h): 28.2 ± 7.8 ng eq/ml or g | Concentration of radioactivity ([3]; Spinal cord, 5 h): 11.4 ± 5.8 ng eq/ml or g | Concentration of radioactivity ([3]; Spinal cord, 12 h): 4.9 ± 2.4 ng eq/ml or g | Concentration of radioactivity ([3]; Spinal cord, 24 h): 1.6 ± 1.1 ng eq/ml or g | Concentration of radioactivity ([3]; Spleen, 0.5 h): 1377.2 ± 292.1 ng eq/ml or g | Concentration of radioactivity ([3]; Spleen, 5 h): 510.7 ± 68.2 ng eq/ml or g | Concentration of radioactivity ([3]; Spleen, 12 h): 312.9 ± 31.8 ng eq/ml or g | Concentration of radioactivity ([3]; Spleen, 24 h): 217.7 ± 21.3 ng eq/ml or g | Concentration of radioactivity ([3]; Spleen, 72 h): 62.4 ± 7.3 (N.C.) ng eq/ml or g | Concentration of radioactivity ([3]; Spleen, 168 h): 17.0 ± 4.3 (N.C.) ng eq/ml or g | Concentration of radioactivity ([3]; Submaxillary gland, 0.5 h): 1009.9 ± 265.5 ng eq/ml or g | Concentration of radioactivity ([3]; Submaxillary gland, 5 h): 309.9 ± 62.2 ng eq/ml or g | Concentration of radioactivity ([3]; Submaxillary gland, 12 h): 123.7 ± 24.6 ng eq/ml or g | Concentration of radioactivity ([3]; Submaxillary gland, 24 h): 78.5 ± 12.3 ng eq/ml or g | Concentration of radioactivity ([3]; Submaxillary gland, 72 h): 18.0 ± 5.0 (N.C.) ng eq/ml or g | Concentration of radioactivity ([3]; Submaxillary gland, 168 h): 6.9 ± 2.5 (N.C.) ng eq/ml or g | Concentration of radioactivity ([3]; Testis, 0.5 h): 68.5 ± 21.6 ng eq/ml or g | Concentration of radioactivity ([3]; Testis, 5 h): 128.2 ± 41.8 ng eq/ml or g | Concentration of radioactivity ([3]; Testis, 12 h): 49.6 ± 10.4 ng eq/ml or g | Concentration of radioactivity ([3]; Testis, 24 h): 18.7 ± 2.4 ng eq/ml or g | Concentration of radioactivity ([3]; Testis, 72 h): 8.3 ± 10.2 (N.C.) ng eq/ml or g | Concentration of radioactivity ([3]; Thymus, 0.5 h): 538.8 ± 138.4 ng eq/ml or g | Concentration of radioactivity ([3]; Thymus, 5 h): 298.8 ± 61.8 ng eq/ml or g | Concentration of radioactivity ([3]; Thymus, 12 h): 181.8 ± 19.4 ng eq/ml or g | Concentration of radioactivity ([3]; Thymus, 24 h): 132.1 ± 3.9 ng eq/ml or g | Concentration of radioactivity ([3]; Thymus, 72 h): 37.5 ± 8.1 (N.C.) ng eq/ml or g | Concentration of radioactivity ([3]; Thymus, 168 h): 10.6 ± 3.3 (N.C.) ng eq/ml or g | Concentration of radioactivity ([3]; Thyroid, 0.5 h): 826.4 ± 164.2 ng eq/ml or g | Concentration of radioactivity ([3]; Thyroid, 5 h): 279.2 ± 83.8 ng eq/ml or g | Concentration of radioactivity ([3]; Thyroid, 12 h): 124.3 ± 25.9 ng eq/ml or g | Concentration of radioactivity ([3]; Thyroid, 24 h): 55.2 ± 7.4 ng eq/ml or g | time of maximum tissue concentration ([3]; large intestine): 12 h | radioactivity concentration as % of the maximum concentration ([3]; other tissues, 168 h): ≤ 3% | plasma radioactivity ([3]; plasma, 72 h): undetectable | time of maximum tissue concentration ([3]; testis, epididymis and cecum): 5 h | exposure versus healthy subjects ([4]; patients with hepatic disorders ref 18): 1.59 fold | exposure versus healthy subjects ([4]; patients with renal disorders ref 17): 1.68 fold | Vd [5]: 8.9 L/kg | radioactivity in autoradiogram ([6]; kidney): relatively high level of radioactivity | radioactivity in autoradiogram ([6]; liver): low level of radioactivity | radioactivity in autoradiogram ([6]; other tissues examined): negligible radioactivity
